# In US4599352A, “Antineoplastic platinum (IV) complexes and compositions” (priority 1984, dated 1986):
# How the values were obtained:
# [1] = tested on: bacteriophage lambda (lambda-lac Z fusion prophage); assay: Biochemical phage induction assay (BIA), induction of bacteriophage lambda (FIG. 1); assay type: cell-based, E. coli (BR 513)
# Method: The platinum complexes are tested using the BIA quantitative tube assay for dose-dependent induction of bacteriophage lambda according to a previously published procedure of Sarma, D. et al. Chem. Biol. Interactions, 46: 219-232 (1983), which is incorporated herein by reference. A permeable strain of E. coli (BR 513) containing lambda phage is used to test all samples. Expression time for the assay is 5 hours at 38° C. Fresh dilutions of test samples are made in saline (0.85%) on the day of the experiment. Samples are made at 10×final concentration and dispensed according to assay procedure. Final concentrations are 300 μg/ml, 200 μg/ml, 100 μg/ml, 60 μg/ml, 25 μg/ml, 10 μg/ml and a zero control.
# This strain of bacteria contains a chromosomally integrated lambda-lac Z fusion phage under control of the lambda repressor. Treatment with DNA-damaging agents leads to derepression of prophage and synthesis of β-galacto-sidase, product of the lac Z gene. β-galactosidase is detected by reaction with a substrate (O-nitrophenyl-D-galactopyranoside (ONPG)) to give a yellow-colored product. Tubes are incubated at 28° C. (a few minutes to several hours to an A420 ≈0.5-1.0). Color development is stopped by the addition of base (1M Na2 CO3), and the yellow color is measured by absorbance at 420 nm. The exact time required for color development is recorded. Enzyme Units=100 A420 /thr where A420 =absorbance at 420 nm; thr =time required to develop yellow color in hours. One enzyme unit is the approximate value of an uninduced control tube at zero time.
# This assay detects a wide variety of compounds which interact with DNA. […] This finding may support the hypothesis that platinum IV complexes are chemically less reactive. However, in vivo there is evidence that platinum IV complexes may be reduced to platinum (II) complexes [Pendyala, L. Proceedings 13th International Cancer Congress, Seatle, Wash., #3034, page 531, (1982)]. […] It is noted that the four isomers are not equal in their ability to induce the prophage.
# [2] = Comparative water solubilities of platinum complexes (Table 7)
# [3] = Solubility of platinum complexes (Table I and preparation examples); assay type: physicochemical
Molecule,Concentration of optimal effect in prophage induction [1] [µg/mL],Effectiveness in inducing prophage [1],"Prophage induction, enzyme units [1]",Water Solubility ([2]; Table 7),Water Solubility mg/L / Mouse Optimal Dose (mg/kg) ([2]; ratio of water solubility to mouse optimal dose),Solubility in DMF ([3]; DMF) [mg/mL],Solubility in methanol ([3]; methanol) [mg/mL],Solubility in methanol-acetone ([3]; methanol-acetone (1:1)) [mg/mL],Solubility in water ([3]; water) [mg/mL]
"[Cl][Pt-2]1([Cl])([Cl])([Cl])[NH2+][C@H]2CCCC[C@@H]2[NH2+]1 [trans (d), (1S, 2S)-Tetrachloro-trans-1,2-cyclohexanediamine platinum (IV)]",25,most effective inducers among the four,about 104 enzyme units,–,–,–,–,–,–
"[Cl][Pt]1([Cl])([Cl])([Cl])[NH]C2CCCCC2[NH]1 (stereo not drawn) [trans (d, l), (d,l)-Tetrachloro-trans-1,2-cyclohexanediamine platinum (IV)]",–,intermediate in effectiveness,about 68 enzyme units,–,–,–,–,–,–
"[Cl][Pt-2]1([Cl])([Cl])([Cl])[NH2+][C@@H]2CCCC[C@H]2[NH2+]1 [trans (l), (1R,2R)-Tetrachloro-trans-1,2-cyclohexanediammine platinum (IV)]",50,most effective inducers among the four,about 104 enzyme units,–,–,–,–,–,–
"Tetrachloro-cis-1,2-cyclohexanediamine platinum (IV)",–,practically inert,–,"2,000 mg/L",250 mg/L / (mg/kg),250,50,200,< 10
